Laboratory results taken from US9062124B2, “GIP-based mixed agonists for treatment of metabolic disorders and obesity” (priority 2008, dated 2015).
Where a SMILES comes first, the peptide text is derived from it. Bridges are numbered along the chain shown (N, C = ends).

How the values were obtained:
Type in all cases: cell-based
GIP receptor = molecular target: T1, GIP receptor (Homo sapiens, UniProt P48546); test: cAMP synthesis functional assay (firefly luciferase reporter in HEK293 cells), GIP receptor
T1 construct: expressed in transfected cells; host or cells: HEK293
T1 sequence (P48546 22-466): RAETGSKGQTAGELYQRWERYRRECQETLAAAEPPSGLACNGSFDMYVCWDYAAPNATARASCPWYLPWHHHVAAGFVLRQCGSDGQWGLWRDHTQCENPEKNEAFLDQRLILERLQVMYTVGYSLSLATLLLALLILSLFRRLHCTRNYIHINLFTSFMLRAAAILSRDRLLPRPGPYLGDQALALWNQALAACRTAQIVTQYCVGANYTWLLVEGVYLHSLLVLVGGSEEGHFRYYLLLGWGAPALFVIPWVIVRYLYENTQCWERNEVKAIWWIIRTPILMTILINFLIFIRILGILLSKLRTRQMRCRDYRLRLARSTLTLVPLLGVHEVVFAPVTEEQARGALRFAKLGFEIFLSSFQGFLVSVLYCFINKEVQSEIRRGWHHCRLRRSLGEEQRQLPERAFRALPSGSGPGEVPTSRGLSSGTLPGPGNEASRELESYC

glucagon receptor = molecular target: T2, glucagon receptor (Homo sapiens, UniProt P47871); test: cAMP synthesis functional assay (firefly luciferase reporter in HEK293 cells), glucagon receptor
T2 construct: expressed in transfected cells; host or cells: HEK293

GLP-1 receptor = molecular target: T3, GLP-1 receptor (Homo sapiens, UniProt P43220); test: cAMP synthesis functional assay (firefly luciferase reporter in HEK293 cells), GLP-1 receptor
T3 construct: expressed in transfected cells; host or cells: HEK293

[1] = Table 1, relative to the native hormone of the indicated receptor
[2] = relative to the standard (Std.) EC50 of the same run

T2 sequence (P47871 26-477): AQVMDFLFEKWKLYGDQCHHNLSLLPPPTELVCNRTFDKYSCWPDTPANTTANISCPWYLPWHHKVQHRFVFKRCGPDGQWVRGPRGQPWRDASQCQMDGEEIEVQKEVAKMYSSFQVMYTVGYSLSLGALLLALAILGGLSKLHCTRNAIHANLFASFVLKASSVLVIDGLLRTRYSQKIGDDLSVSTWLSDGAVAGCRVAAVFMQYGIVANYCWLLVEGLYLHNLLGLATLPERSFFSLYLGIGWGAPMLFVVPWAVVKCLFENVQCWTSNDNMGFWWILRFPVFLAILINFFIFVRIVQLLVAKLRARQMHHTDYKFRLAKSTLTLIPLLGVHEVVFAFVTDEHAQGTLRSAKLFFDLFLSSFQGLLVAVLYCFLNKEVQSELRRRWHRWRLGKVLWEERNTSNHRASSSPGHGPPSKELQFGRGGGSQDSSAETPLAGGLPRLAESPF
T3 sequence (P43220 24-463, species assumed): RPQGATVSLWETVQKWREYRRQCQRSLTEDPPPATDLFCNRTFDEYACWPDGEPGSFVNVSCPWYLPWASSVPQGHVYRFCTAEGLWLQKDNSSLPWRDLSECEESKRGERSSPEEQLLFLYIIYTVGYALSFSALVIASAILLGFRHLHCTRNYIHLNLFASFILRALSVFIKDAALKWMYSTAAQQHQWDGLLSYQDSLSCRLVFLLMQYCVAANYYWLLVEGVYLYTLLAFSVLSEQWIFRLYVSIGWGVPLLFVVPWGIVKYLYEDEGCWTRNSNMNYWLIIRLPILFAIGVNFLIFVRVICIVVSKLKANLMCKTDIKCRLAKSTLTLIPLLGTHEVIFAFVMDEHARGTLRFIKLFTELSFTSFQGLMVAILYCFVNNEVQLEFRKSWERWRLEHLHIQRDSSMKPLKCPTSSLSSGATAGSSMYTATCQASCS

| SMILES | GIP Receptor relative activity (GIP receptor; [1]) [%] | Glucagon Receptor relative activity (glucagon receptor; [1]) [%] | GLP-1 Receptor relative activity (GLP-1 receptor; [1]) [%] | EC50 (GIP receptor; GIP Receptor EC50, cAMP luciferase reporter assay as in Example 16) [pM] | GIP Receptor relative activity (GIP receptor; [2]) [%] | Glucagon Receptor relative activity (glucagon receptor; [2]) [%] | EC50 (GLP-1 receptor; GLP-1 Receptor EC50, cAMP luciferase reporter assay as in Example 16) [nM] | GLP-1 Receptor relative activity (GLP-1 receptor; [2]) [%] |
| --- | --- | --- | --- | --- | --- | --- | --- | --- |
| CC[C@H](C)[C@H](NC(=O)[C@H](Cc1ccccc1)NC(=O)[C@H](CC(=O)O)NC(=O)[C@@H]1CCCCNC(=O)CC[C@H](NC(=O)[C@H](CC(=O)O)NC(=O)[C@H](CC(C)C)NC(=O)[C@H](Cc2ccc(O)cc2)NC(=O)[C@H](CCCCN)NC(=O)[C@H](CO)NC(=O)[C@H](Cc2ccc(O)cc2)NC(=O)[C@H](CC(=O)O)NC(=O)[C@H](CO)NC(=O)[C@@H](NC(=O)[C@H](Cc2ccccc2)NC(=O)[C@@H](NC(=O)CNC(=O)[C@H](CCC(N)=O)NC(=O)[C@H](CO)NC(=O)[C@@H](N)Cc2ccc(O)cc2)[C@@H](C)O)[C@@H](C)O)C(=O)N[C@@H]([C@@H](C)CC)C(=O)N[C@@H](Cc2c[nH]cn2)C(=O)N[C@@H](CCC(N)=O)C(=O)N1)C(=O)N[C@@H](C)C(=O)N[C@@H](Cc1c[nH]c2ccccc12)C(=O)N[C@@H](CC(C)C)C(=O)N[C@@H](CCSC)C(=O)N[C@@H](CC(N)=O)C(=O)NCC(=O)NCC(=O)N1CCC[C@H]1C(=O)N[C@@H](CO)C(=O)N[C@@H](CO)C(=O)NCC(=O)N[C@@H](C)C(=O)N1CCC[C@H]1C(=O)N1CCC[C@H]1C(=O)N1CCC[C@H]1C(=O)N[C@@H](CO)C(N)=O [mt-129] (H-YSQGTFTSDYSKYLDEIHQKDFIAWLMNGGPSSGAPPPS-NH2; lactam 16-20; N-terminus assumed) | 2.06 | 17.34 | 1.12 |  |  |  |  |  |
| CC[C@H](C)[C@H](NC(=O)[C@H](CO)NC(=O)[C@H](Cc1ccc(O)cc1)NC(=O)[C@H](CC(=O)O)NC(=O)[C@H](CO)NC(=O)[C@@H](NC(=O)[C@H](Cc1ccccc1)NC(=O)[C@@H](NC(=O)CNC(=O)[C@H](CCC(=O)O)NC(=O)C(C)(C)NC(=O)[C@@H](N)Cc1ccc(O)cc1)[C@@H](C)O)[C@@H](C)O)C(=O)N[C@@H](Cc1ccc(O)cc1)C(=O)N[C@@H](CC(C)C)C(=O)N[C@@H](CC(=O)O)C(=O)N[C@@H](CCCCN)C(=O)N[C@@H](CCC(N)=O)C(=O)N[C@@H](C)C(=O)N[C@@H](C)C(=O)NC(C)(C)C(=O)N[C@@H](CCC(=O)O)C(=O)N[C@@H](Cc1ccccc1)C(=O)N[C@H](C(=O)N[C@@H](CC(N)=O)C(=O)N[C@@H](Cc1c[nH]c2ccccc12)C(=O)N[C@@H](CC(C)C)C(=O)N[C@@H](CC(C)C)C(=O)N[C@@H](C)C(=O)NCC(=O)NCC(=O)N1CCC[C@H]1C(=O)N[C@@H](CO)C(=O)N[C@@H](CO)C(=O)NCC(=O)N[C@@H](C)C(=O)N1CCC[C@H]1C(=O)N1CCC[C@H]1C(=O)N1CCC[C@H]1C(=O)N[C@@H](CO)C(=O)N[C@@H](CS)C(N)=O)C(C)C [mt-256] |  |  |  | 3.4 | 282.35 | 0.12 | 0.0124 | 95.97 |
| CC[C@H](C)[C@H](NC(=O)[C@H](CO)NC(=O)[C@H](Cc1ccc(O)cc1)NC(=O)[C@H](CC(=O)O)NC(=O)[C@H](CO)NC(=O)[C@@H](NC(=O)[C@H](Cc1ccccc1)NC(=O)[C@@H](NC(=O)CNC(=O)[C@H](CCC(N)=O)NC(=O)[C@H](CO)NC(=O)[C@@H](N)Cc1ccc(O)cc1)[C@@H](C)O)[C@@H](C)O)C(=O)N[C@@H](Cc1ccc(O)cc1)C(=O)N[C@@H](CC(C)C)C(=O)N[C@@H](CC(=O)O)C(=O)N[C@@H](CCC(=O)O)C(=O)N[C@@H](CCC(N)=O)C(=O)N[C@@H](C)C(=O)N[C@@H](C)C(=O)N[C@@H](CCCCN)C(=O)N[C@@H](CCC(=O)O)C(=O)N[C@@H](Cc1ccccc1)C(=O)N[C@H](C(=O)N[C@H]1CCC(=O)NCCCC[C@@H](C(=O)NCC(=O)NCC(=O)N2CCC[C@H]2C(=O)N[C@@H](CO)C(=O)N[C@@H](CO)C(=O)NCC(=O)N[C@@H](C)C(=O)N2CCC[C@H]2C(=O)N2CCC[C@H]2C(=O)N2CCC[C@H]2C(=O)N[C@@H](CO)C(N)=O)NC(=O)[C@H](CC(C)C)NC(=O)[C@H](CC(C)C)NC(=O)[C@H](Cc2c[nH]c3ccccc23)NC1=O)C(C)C [mt-157] (H-YSQGTFTSDYSIYLDEQAAKEFVEWLLKGGPSSGAPPPS-NH2; lactam 24-28; N-terminus assumed) | 4.00 | 6.92 | 37.04 |  |  |  |  |  |
